Test systems include 786-0 renal; CAKI-1 renal; HOP-92 NSCLC; OVCAR-3 ovarian; SF-268 CNS; SK-OV-3 ovarian; SNB-75 CNS; TK-10 renal; MDA-N.
Holding throughout (assay): NCI-60 cell line screen, 48 h

Several values for one entry are separate records, joined by “and”; a condition that tells them apart may be missing. Equal values may be shown once.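 Results reflect a 48-hour exposure of cells in 96-well plates to compound at five concentrations. GI50 is the concentration that inhibits growth by half. TGI marks complete inhibition of growth.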

This passage reports GI50 and TGI results from PubChem BioAssay (NCI).

In the case of `Cc1cccc(CNc2c3ccccc3nc3ccccc23)c1`, the GI50 in the assay on 786-0 renal was 1.89 µM; with CAKI-1 renal, 1.61 µM; with HOP-92 NSCLC, 1.22 µM; in the assay with OVCAR-3 ovarian, 2.29 µM; with SF-268 CNS it was 3.06 µM; in the assay with SK-OV-3 ovarian, 2.61 µM. Also, the GI50 with SNB-75 CNS is 1.08 µM; in the assay on TK-10 renal it was 2.83 µM. Besides, the TGI in the assay with 786-0 renal was 4.09 µM; in the assay with CAKI-1 renal it was 5.03 µM; in the assay with HOP-92 NSCLC, 4.57 µM; in the assay on OVCAR-3 ovarian, 5.92 µM; in the assay on SF-268 CNS, 11.8 µM; in the assay with SK-OV-3 ovarian, 10.5 µM. Moreover, the figures for the TGI with SNB-75 CNS and in the assay with TK-10 renal were 8.32 µM and 12.2 µM, respectively.

In the case of `Cc1cc(NC(=O)NCCOc2ccc(N3C(N)=NC(N)=NC3(C)C)cc2Cl)ccc1S(=O)(=O)F`, the GI50 in the assay with 786-0 renal was 5.02 µM; in the assay with CAKI-1 renal it was 55.4 µM; in the assay on HOP-92 NSCLC it was 5.07 µM; with OVCAR-3 ovarian, 5.24 µM; in the assay on SF-268 CNS it was 1.64 µM; in the assay with SK-OV-3 ovarian, 12 µM. Besides, the GI50 in the assay on SNB-75 CNS is 1.53 µM; in the assay with TK-10 renal, 6.23 µM. In addition, the TGI with 786-0 renal is above 100 µM; with CAKI-1 renal, above 100 µM; in the assay on HOP-92 NSCLC, 22.2 µM; in the assay on OVCAR-3 ovarian, above 71 µM; with SF-268 CNS, 99.5 µM; in the assay with SK-OV-3 ovarian, above 100 µM. Moreover, the values for the TGI in the assay on SNB-75 CNS and in the assay on TK-10 renal were 48.3 µM and above 100 µM, respectively.

For `CC(C)(C)OC(=O)N(CCCCN(CCCn1c2c(c3ccccc3c1=O)C(=O)c1ccccc1-2)C(=O)OC(C)(C)C)CCCn1c2c(c3ccccc3c1=O)C(=O)c1ccccc1-2`, the GI50 in the assay on 786-0 renal was 26.8 µM; with CAKI-1 renal it was 19.9 µM; with HOP-92 NSCLC it was 97 µM; with OVCAR-3 ovarian it was 69.6 µM; in the assay with SF-268 CNS, 58.5 µM; in the assay on SK-OV-3 ovarian, above 100 µM. The GI50 in the assay with SNB-75 CNS and in the assay on TK-10 renal was above 100 µM throughout. In addition, the TGI in the assay with 786-0 renal, with CAKI-1 renal, in the assay with HOP-92 NSCLC, with OVCAR-3 ovarian, in the assay with SF-268 CNS and with SK-OV-3 ovarian was above 100 µM each time. For the same compound, the TGI in the assay with SNB-75 CNS and with TK-10 renal was above 100 µM throughout.

Turning to `O=NNc1ccc(-c2ccccc2)cn1`, the TGI with 786-0 renal is above 39.2 µM; with CAKI-1 renal it was 43.8 µM; in the assay on HOP-92 NSCLC, 8.45 µM; with OVCAR-3 ovarian, 53.1 µM; in the assay with SF-268 CNS it was 29.2 µM; with SK-OV-3 ovarian it was above 78.8 µM. For the same compound, the results for the TGI in the assay on SNB-75 CNS and in the assay with TK-10 renal were 29.3 µM and 69 µM, respectively.

On to `CN(C)S(=O)(=O)c1cccc(C(=O)Nc2nc(-c3ccc(F)c(F)c3)cs2)c1`, for which the GI50 with 786-0 renal was 18.8 µM; with CAKI-1 renal, 10.9 µM; in the assay on HOP-92 NSCLC it was 9.41 µM; in the assay with OVCAR-3 ovarian it was 18.4 µM; with SF-268 CNS, 13.9 µM; in the assay with SK-OV-3 ovarian it was 35.7 µM. Moreover, the GI50 in the assay on SNB-75 CNS was 4.96 µM; in the assay with TK-10 renal, 18.1 µM. Further, the TGI in the assay with 786-0 renal is 90.4 µM; in the assay with CAKI-1 renal, above 75.9 µM; in the assay with HOP-92 NSCLC it was above 74.3 µM; in the assay on OVCAR-3 ovarian it was above 95.4 µM; in the assay with SF-268 CNS it was above 100 µM; in the assay with SK-OV-3 ovarian, above 100 µM. The TGI with SNB-75 CNS is above 60.8 µM; with TK-10 renal it was above 100 µM.

Consider `CC(=O)c1cc2c(Br)cccc2oc1=O`, for which the TGI with 786-0 renal, in the assay with CAKI-1 renal, in the assay with HOP-92 NSCLC, in the assay with MDA-N, in the assay with OVCAR-3 ovarian and in the assay with SF-268 CNS was above 100 µM in each case. In addition, the TGI in the assay on SNB-75 CNS and with TK-10 renal was above 100 µM throughout.

As to `COC(=O)NC1(NC(=O)OC)NC(=O)c2ccccc2N1`, the TGI in the assay with 786-0 renal, with CAKI-1 renal, with MDA-N, with OVCAR-3 ovarian, in the assay on SF-268 CNS and with SK-OV-3 ovarian was above 100 µM in each case. Further, the TGI in the assay with SNB-75 CNS and with TK-10 renal was above 100 µM in each case.

Take `C[C@H]1C[C@@H](n2c(Nc3ccc(OC(F)(F)F)cc3)nc3cc(CCC(=O)O)ccc32)CC(C)(C)C1`: the GI50 is 5.5 µM in the assay with 786-0 renal; 15.4 µM with CAKI-1 renal; 16.4 µM with HOP-92 NSCLC; 13 µM in the assay with OVCAR-3 ovarian; 12.1 µM with SF-268 CNS; 20 µM with SK-OV-3 ovarian. Moreover, the GI50 in the assay on SNB-75 CNS is 13.8 µM; with TK-10 renal, 20.6 µM. Also, the TGI with 786-0 renal is 19.7 µM; with CAKI-1 renal, 28.8 µM; in the assay with HOP-92 NSCLC, 32.1 µM; with OVCAR-3 ovarian, 25.8 µM; with SF-268 CNS, 27.7 µM; in the assay on SK-OV-3 ovarian it was 35.4 µM. Moreover, the TGI with SNB-75 CNS was found to be 28 µM; in the assay on TK-10 renal, 46.9 µM.

Regarding `CCN1C(=O)N(CC)C2C1NN=c1s/c(=C3\C(=O)Nc4ccccc43)c(=O)n12` (stereo not given), the GI50 in the assay with 786-0 renal was 0.588 µM; in the assay with CAKI-1 renal, 0.404 µM; in the assay with HOP-92 NSCLC, 0.598 µM; with OVCAR-3 ovarian, 0.331 µM; with SF-268 CNS, 10.6 µM; with SK-OV-3 ovarian, 0.781 µM. The GI50 was below 0.0447 µM in the assay on SNB-75 CNS and 9.37 µM with TK-10 renal. Besides, the TGI in the assay on 786-0 renal worked out at 24.6 µM; with CAKI-1 renal it was 34.8 µM; with HOP-92 NSCLC, 32.5 µM; in the assay with OVCAR-3 ovarian, 3.02 µM; in the assay with SF-268 CNS it was 45.1 µM; with SK-OV-3 ovarian, 29.6 µM. Besides, the values for the TGI in the assay on SNB-75 CNS and in the assay on TK-10 renal were 0.429 µM and 32.6 µM, respectively.

For `CCc1nc(N)nc(N)c1C#CC(C)c1ccc(-c2ccncc2)cc1Cl` (stereo not given), the GI50 is 0.00501 µM and 0.0128 µM in the assay with 786-0 renal; 0.0259 µM in the assay with CAKI-1 renal; 0.109 µM and 0.547 µM with HOP-92 NSCLC; 0.0421 µM and 0.098 µM in the assay on OVCAR-3 ovarian; 0.0287 µM and 0.0682 µM in the assay on SF-268 CNS; 0.0977 µM and 0.0932 µM in the assay with SK-OV-3 ovarian. Moreover, the GI50 in the assay with SNB-75 CNS is 0.505 µM and 1.67 µM. Also, the TGI in the assay on 786-0 renal was 4.06 µM and 6.63 µM; in the assay on CAKI-1 renal, 5.07 µM; in the assay on HOP-92 NSCLC, 1.56 µM and 6.36 µM; with OVCAR-3 ovarian, 2.06 µM and 13.3 µM; with SF-268 CNS, 3.2 µM and 16.8 µM; in the assay with SK-OV-3 ovarian, 2.63 µM and 14.6 µM. The TGI with SNB-75 CNS is 2.76 µM and 9.74 µM; in the assay on TK-10 renal, 4.46 µM and 6.39 µM.
